In PubChem BioAssay (NCI) one finds TGI data, which are given here for seven compounds.

By TGI is commonly meant the concentration giving total growth inhibition.

Test systems include ACHN renal; OVCAR-8 ovarian; SR leukemia; A549 NSCLC; HS 578T breast; MDA-MB-231 breast; HCC-2998 colon; A498 renal; SN12C renal; MALME-3M melanoma; HCT-15 colon; NCI-H226 lung; HOP-62 NSCLC; RPMI-8226 leukemia; MDA-N; U251 CNS; MOLT-4 leukemia; DU-145 prostate; SK-MEL-5 melanoma.
Assay in all cases: DTP human tumour cell line panel, 48 h

The structures appear in SMILES notation.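 Cells were grown in 96-well plates and exposed to each compound for 48 hours at five concentrations; endpoints were interpolated linearly between bracketing concentrations, or set to the highest concentration if not reached. TGI: concentration producing complete growth inhibition.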

For the compound `O=c1[nH]c(=S)n(-c2cccc3ccccc23)c(O)c1/C=C1\C=Nc2ccccc21`, the total growth inhibition concentration (TGI) came to 5.73 µM with ACHN renal; 6.86 µM with OVCAR-8 ovarian; 4.04 µM in the assay with SR leukemia; 20.6 µM with A549 NSCLC; 58.8 µM in the assay with HS 578T breast; 5.14 µM in the assay with MDA-MB-231 breast. Besides, the TGI with HCC-2998 colon was 3.5 µM; in the assay with A498 renal, 4.25 µM; with SN12C renal it was 5.29 µM; with MALME-3M melanoma, 5.8 µM; in the assay on HCT-15 colon it was 3.45 µM; in the assay on NCI-H226 lung, 5.8 µM. Besides, the concentration for total growth inhibition (TGI) in the assay with HOP-62 NSCLC was 10.7 µM; in the assay on RPMI-8226 leukemia it was 4.96 µM; in the assay with MDA-N, 4.63 µM; in the assay with U251 CNS, 5.45 µM; in the assay on MOLT-4 leukemia it was 5.02 µM; in the assay on DU-145 prostate it was 3.55 µM. In the assay on SK-MEL-5 melanoma, this compound came in with a TGI of 3.12 µM.

In the case of `COC(=O)c1c(O)ccc2c1c1cc3ccccc3c(O)c1n2Cc1ccccc1Cl`, the TGI was 95.7 µM with ACHN renal; above 100 µM in the assay with OVCAR-8 ovarian; above 100 µM in the assay on SR leukemia; above 100 µM in the assay on A549 NSCLC; 84.4 µM in the assay on HS 578T breast; above 100 µM in the assay on MDA-MB-231 breast. Besides, the TGI in the assay on HCC-2998 colon is 47.7 µM; in the assay with A498 renal, above 100 µM; in the assay on SN12C renal, above 100 µM; in the assay on MALME-3M melanoma it was 74.7 µM; in the assay with HCT-15 colon it was 77.1 µM; in the assay on NCI-H226 lung, above 100 µM. In addition, the concentration for total growth inhibition (TGI) was 59.3 µM in the assay with HOP-62 NSCLC; 70 µM with RPMI-8226 leukemia; 61.8 µM in the assay on MDA-N; above 100 µM in the assay with U251 CNS; above 100 µM in the assay with MOLT-4 leukemia; above 100 µM in the assay with DU-145 prostate. The same compound yielded a TGI in the assay with SK-MEL-5 melanoma of 56.2 µM.

On to `Nc1nc(Cl)cc(NCC2(CO)CC(CCCc3ccccc3)C2)n1` (stereo not drawn), for which the TGI in the assay with ACHN renal, with OVCAR-8 ovarian, with SR leukemia, with A549 NSCLC, in the assay on HS 578T breast and in the assay on MDA-MB-231 breast was above 100 µM throughout. The TGI in the assay with HCC-2998 colon, in the assay on A498 renal, in the assay on SN12C renal, in the assay on MALME-3M melanoma, with HCT-15 colon and in the assay on NCI-H226 lung was above 100 µM throughout. For the same compound, the TGI with HOP-62 NSCLC, in the assay on RPMI-8226 leukemia, in the assay with MDA-N, in the assay on U251 CNS, in the assay on MOLT-4 leukemia and in the assay with DU-145 prostate was above 100 µM throughout. In addition, the TGI in the assay on SK-MEL-5 melanoma was above 100 µM.

As to `CCOc1cc(/C=N\O)cc(/C=N/O)c1O`, the TGI in the assay on ACHN renal is 59.4 µM; in the assay with OVCAR-8 ovarian, 66.6 µM; in the assay on SR leukemia it was above 100 µM; in the assay on A549 NSCLC, above 100 µM; in the assay with HS 578T breast, above 100 µM; in the assay on MDA-MB-231 breast, above 100 µM. Also, the TGI with HCC-2998 colon is above 100 µM; in the assay with A498 renal it was 51.1 µM; with SN12C renal it was above 100 µM; in the assay on MALME-3M melanoma, above 100 µM; in the assay on HCT-15 colon it was 92.6 µM; in the assay with NCI-H226 lung, above 100 µM. The TGI in the assay with HOP-62 NSCLC is above 100 µM; in the assay on RPMI-8226 leukemia, above 100 µM; in the assay on MDA-N, above 100 µM; in the assay with U251 CNS, 84.3 µM; in the assay on MOLT-4 leukemia it was 99 µM; with DU-145 prostate, above 100 µM. In the assay on SK-MEL-5 melanoma, this compound had a TGI of 39.5 µM.

With `CCCCCCCCCCCCCCCCCCNc1ccn(C2OC(COP(=O)(O)OCC(COP(=O)(O)OCC3OC(n4cc(C)c(=O)[nH]c4=O)CC3N=[N+]=[N-])OCCCCCCCCCCCCCCCCCC)C(O)C2O)c(=O)n1` (stereo not drawn), the concentration for total growth inhibition (TGI) in the assay with ACHN renal, in the assay on OVCAR-8 ovarian, in the assay with SR leukemia, in the assay with A549 NSCLC, in the assay on HS 578T breast and in the assay with MDA-MB-231 breast was above 100 µM in each case. The TGI in the assay with HCC-2998 colon, with A498 renal, in the assay on SN12C renal, with MALME-3M melanoma, in the assay with HCT-15 colon and with NCI-H226 lung was above 100 µM in each case. For the same compound, the TGI is above 100 µM in the assay on HOP-62 NSCLC; above 100 µM in the assay with RPMI-8226 leukemia; above 100 µM in the assay on MDA-N; 27.8 µM with U251 CNS; above 100 µM in the assay with MOLT-4 leukemia; above 100 µM in the assay on DU-145 prostate. Moreover, in the assay on SK-MEL-5 melanoma, the TGI is above 100 µM.

Take `C=CC(C)CCC(C/C=C(\C)CCCC(C)C)C(=C)CCCC(C)C` (stereo not drawn): the TGI in the assay on ACHN renal, in the assay on OVCAR-8 ovarian, with SR leukemia, in the assay with A549 NSCLC, with HS 578T breast and in the assay with MDA-MB-231 breast was above 100 µM each time. Further, the TGI in the assay with HCC-2998 colon, in the assay on A498 renal, in the assay on SN12C renal, in the assay with MALME-3M melanoma, with HCT-15 colon and in the assay with NCI-H226 lung was above 100 µM in each case. For the same compound, the concentration for total growth inhibition (TGI) in the assay on HOP-62 NSCLC, in the assay on RPMI-8226 leukemia, in the assay on MDA-N, in the assay with U251 CNS, in the assay on MOLT-4 leukemia and in the assay with DU-145 prostate was above 100 µM throughout. The compound further registered a TGI in the assay with SK-MEL-5 melanoma above 100 µM.

As to `CC(=O)O[C@H]1C[C@H]2[C@@H]([C@H](OC(C)=O)C[C@@H]3CC4(CC[C@@]32C)OOC2(CCCCC2)OO4)[C@@H]2CC[C@H]([C@H](C)CCC(N)=O)[C@@]12C`, the TGI in the assay on ACHN renal came to 3.12 µM; with OVCAR-8 ovarian it was 9.87 µM; with SR leukemia, 1.88 µM; in the assay on A549 NSCLC it was 2.93 µM; with HS 578T breast it was 19.7 µM; in the assay on MDA-MB-231 breast it was 4.22 µM. The TGI in the assay on HCC-2998 colon turned out to be 7.41 µM; with A498 renal it was 18.1 µM; with SN12C renal, 5.5 µM; in the assay with MALME-3M melanoma, 6.82 µM; in the assay on HCT-15 colon, 5.31 µM; in the assay on NCI-H226 lung it was 6.8 µM. For the same compound, the total growth inhibition concentration (TGI) in the assay with HOP-62 NSCLC came to 2.11 µM; in the assay with RPMI-8226 leukemia it was 2.7 µM; with MDA-N it was 3.71 µM; in the assay on U251 CNS, 3.15 µM; in the assay on MOLT-4 leukemia it was 2.9 µM; in the assay on DU-145 prostate, 3.52 µM. The TGI in the assay on SK-MEL-5 melanoma stood at 5.24 µM.
